Data on 13 compounds can be found in PubChem BioAssay (NCI).

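Five compound concentrations were applied to cells in 96-well plates for 48 hours; endpoints were derived by simple linear interpolation of the resulting dose-response curve. At the GI50, growth is halved. TGI: concentration producing complete growth inhibition.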 Where only a bound is given, the exact number is not on record here.

Among the test systems are NCI-H460 lung; OVCAR-5 ovarian; SK-MEL-2 melanoma; UO-31 renal; EKVX NSCLC; OVCAR-3 ovarian; M19-MEL melanoma; HL-60(TB) leukemia; MOLT-4 leukemia; SF-268 CNS.
Common to all, as to experiment: inhibition of tumour cell growth, NCI panel, 48 h

On to `C/C(=N\NC(=S)N1CCC1)c1ccccn1`, for which the GI50 was 0.07 µM in the experiment on NCI-H460 lung; 0.00689 µM in the experiment with OVCAR-5 ovarian; 0.0188 µM with UO-31 renal; 0.00157 µM in the experiment on OVCAR-3 ovarian; 0.0045 µM in the experiment with HL-60(TB) leukemia; 0.00601 µM in the experiment on MOLT-4 leukemia. The GI50 in the experiment with SF-268 CNS is 0.00557 µM. Besides, the TGI in the experiment with NCI-H460 lung is 6.33 µM; in the experiment on OVCAR-5 ovarian, 49.9 µM; with SK-MEL-2 melanoma it was 33.3 µM; in the experiment on UO-31 renal it was 15.3 µM; in the experiment with EKVX NSCLC, 48.6 µM; in the experiment on M19-MEL melanoma, over 100 µM. Besides, the TGI with HL-60(TB) leukemia was 3.57 µM; in the experiment with MOLT-4 leukemia, over 10.5 µM; in the experiment with SF-268 CNS it was over 100 µM.

For the compound `C1CN2CCO[SiH](O1)OCC2`, the TGI with NCI-H460 lung, in the experiment on SK-MEL-2 melanoma, in the experiment with UO-31 renal, in the experiment with EKVX NSCLC, in the experiment on OVCAR-3 ovarian and in the experiment on M19-MEL melanoma was over 100 µM throughout. Further, the TGI in the experiment on HL-60(TB) leukemia, in the experiment with MOLT-4 leukemia and with SF-268 CNS was over 100 µM in each case.

Regarding `O=C(O)c1ccccc1C(=O)c1ccco1`, the TGI with NCI-H460 lung, in the experiment on OVCAR-5 ovarian, in the experiment on SK-MEL-2 melanoma, with UO-31 renal, with EKVX NSCLC and in the experiment with OVCAR-3 ovarian was over 100 µM in each case. The TGI with M19-MEL melanoma, in the experiment on HL-60(TB) leukemia, in the experiment with MOLT-4 leukemia and with SF-268 CNS was over 100 µM in each case.

As to `N#Cc1c(-c2ccccc2)c(-c2ccccc2)cc2c(=O)c3ccc(Cl)cc3[nH]c12`, the TGI in the experiment with NCI-H460 lung, in the experiment on OVCAR-5 ovarian, with SK-MEL-2 melanoma, in the experiment on UO-31 renal, with EKVX NSCLC and in the experiment on OVCAR-3 ovarian was over 100 µM throughout. The TGI in the experiment on M19-MEL melanoma, with HL-60(TB) leukemia, with MOLT-4 leukemia and in the experiment with SF-268 CNS was over 100 µM throughout.

`O=C1C=CC2(O)OCC3C=C4O[C@@H]5OC6(CCCCC6)O[C@@H]5C4[C@@H]2[C@@H]13` (some centres undefined): the TGI was over 100 µM in the experiment with NCI-H460 lung; over 100 µM with OVCAR-5 ovarian; over 100 µM in the experiment on SK-MEL-2 melanoma; 37.3 µM in the experiment on UO-31 renal; 78.7 µM with EKVX NSCLC; 52.2 µM in the experiment on OVCAR-3 ovarian. In addition, the TGI in the experiment with M19-MEL melanoma is 54.9 µM; in the experiment with HL-60(TB) leukemia, 42.1 µM; in the experiment on MOLT-4 leukemia, 70.5 µM; in the experiment on SF-268 CNS, over 100 µM.

For `CC(C)N(C(=O)C12C3C4C1C1C4(C#N)C3C12C(=O)O)C(C)C` (centres undefined), the TGI in the experiment on NCI-H460 lung, in the experiment with OVCAR-5 ovarian, in the experiment on SK-MEL-2 melanoma, in the experiment with UO-31 renal, with EKVX NSCLC and in the experiment with OVCAR-3 ovarian was over 100 µM in each case. Besides, the TGI with M19-MEL melanoma was over 100 µM; in the experiment with HL-60(TB) leukemia it was over 63 µM; in the experiment on MOLT-4 leukemia, over 100 µM; in the experiment with SF-268 CNS, over 100 µM.

In the case of `CCCCCCCCCC1CC(=O)OC23CCCC(=O)C12O3` (centres undefined), the TGI in the experiment on NCI-H460 lung, in the experiment on OVCAR-5 ovarian, in the experiment on SK-MEL-2 melanoma, in the experiment on UO-31 renal, in the experiment on EKVX NSCLC and in the experiment on OVCAR-3 ovarian was over 100 µM in each case. In addition, the TGI is over 100 µM with M19-MEL melanoma, 69.2 µM in the experiment with HL-60(TB) leukemia, 71.4 µM in the experiment with MOLT-4 leukemia and over 100 µM with SF-268 CNS.

Regarding `O=C1C=CC2(CCC23C=CC(=O)O3)O1` (centres undefined), the TGI in the experiment with NCI-H460 lung, in the experiment with OVCAR-5 ovarian, in the experiment on SK-MEL-2 melanoma, in the experiment with UO-31 renal, in the experiment on EKVX NSCLC and in the experiment on OVCAR-3 ovarian was over 100 µM in each case. In addition, the TGI in the experiment with M19-MEL melanoma, in the experiment with HL-60(TB) leukemia, in the experiment with MOLT-4 leukemia and in the experiment on SF-268 CNS was over 100 µM in each case.

Consider `CC(C)c1ccc(Cc2ccc(C(C)C)c(NC(=O)C(=O)Cc3cnc4ccccc4n3)c2C(C)C)c(C(C)C)c1NC(=O)C(=O)Cc1cnc2ccccc2n1`, for which the TGI in the experiment with NCI-H460 lung, in the experiment on OVCAR-5 ovarian, in the experiment with SK-MEL-2 melanoma, in the experiment on UO-31 renal, in the experiment with EKVX NSCLC and in the experiment on OVCAR-3 ovarian was over 100 µM each time. In addition, the TGI in the experiment on M19-MEL melanoma, with HL-60(TB) leukemia and with MOLT-4 leukemia was over 100 µM each time.

`CCOC(=O)C[C@@]12CCCN[C@]1(C)CCc1ccccc12`: the TGI in the experiment with NCI-H460 lung, in the experiment on OVCAR-5 ovarian, in the experiment with SK-MEL-2 melanoma, in the experiment on UO-31 renal, with EKVX NSCLC and with OVCAR-3 ovarian was over 100 µM throughout. Further, the TGI in the experiment with M19-MEL melanoma, in the experiment with HL-60(TB) leukemia, in the experiment on MOLT-4 leukemia and with SF-268 CNS was over 100 µM each time.

For `Cc1nc2ccncc2[nH]1`, the TGI in the experiment with NCI-H460 lung, in the experiment on OVCAR-5 ovarian, in the experiment on SK-MEL-2 melanoma, in the experiment with UO-31 renal, in the experiment with EKVX NSCLC and with OVCAR-3 ovarian was over 100 µM in each case. In addition, the TGI in the experiment on M19-MEL melanoma, in the experiment on HL-60(TB) leukemia, in the experiment with MOLT-4 leukemia and with SF-268 CNS was over 100 µM each time.

On to `C[n+]1cn(CC(=O)c2ccccc2)c(C(N)=O)c1N`, for which the TGI in the experiment with NCI-H460 lung, with OVCAR-5 ovarian, with SK-MEL-2 melanoma, in the experiment on UO-31 renal, with EKVX NSCLC and with OVCAR-3 ovarian was over 100 µM in each case. Further, the TGI in the experiment on M19-MEL melanoma is 63.2 µM; with HL-60(TB) leukemia it was over 100 µM; in the experiment on MOLT-4 leukemia, over 100 µM; in the experiment with SF-268 CNS, over 100 µM.

Turning to `CCC(Oc1ccc(OC)c2c1C(=O)CCC2)C(=O)O` (centres undefined), the TGI in the experiment with NCI-H460 lung, in the experiment with OVCAR-5 ovarian, with SK-MEL-2 melanoma, with UO-31 renal, with EKVX NSCLC and in the experiment on OVCAR-3 ovarian was over 100 µM throughout. Also, the TGI with M19-MEL melanoma, in the experiment on HL-60(TB) leukemia, with MOLT-4 leukemia and in the experiment with SF-268 CNS was over 100 µM each time.
